T1: Aedes aegypti mevalonate kinase (AaMVK) (Aedes aegypti, UniProt Q176C1)
T1 construct: gene 5567998; recombinant His-tagged full-length AaMVK (397 aa) expressed in E. coli
T1 sequence (Q176C1 1-397): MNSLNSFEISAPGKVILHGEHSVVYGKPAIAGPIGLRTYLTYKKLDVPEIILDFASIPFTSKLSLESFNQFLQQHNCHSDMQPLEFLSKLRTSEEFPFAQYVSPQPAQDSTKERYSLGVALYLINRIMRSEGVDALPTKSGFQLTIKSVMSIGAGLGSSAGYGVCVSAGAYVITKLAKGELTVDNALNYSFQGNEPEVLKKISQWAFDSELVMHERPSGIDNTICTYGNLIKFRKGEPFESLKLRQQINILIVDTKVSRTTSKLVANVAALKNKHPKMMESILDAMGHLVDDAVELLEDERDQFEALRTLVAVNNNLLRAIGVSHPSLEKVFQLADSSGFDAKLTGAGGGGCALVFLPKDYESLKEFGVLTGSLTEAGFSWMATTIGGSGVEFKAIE


Tests used:
[1] = target: T1, Aedes aegypti mevalonate kinase (AaMVK); assay: PK/LDH-coupled spectrophotometric kinase assay, Ki from varied ATP and inhibitor; type: biochemical
[2] = substrate: Nc1ncnc2c1ncn2[C@@H]1O[C@H](COP(=O)(O)OP(=O)(O)OP(=O)(O)O)[C@@H](O)[C@H]1O; assay: Michaelis-Menten kinetics, PK/LDH-coupled assay (Km); type: biochemical, Aedes aegypti; details: Mg2+
purified protein = substrate: C[C@@](O)(CCO)CC(=O)O; assay: purified protein; details: Mg2+

Molecule | Ki [1] [nM] | Km [2] [µM] | Km (purified protein) [µM]
CC(C)=CCC/C(C)=C/CC/C(C)=C/CO[P@@](=O)(O)OP(=O)(O)O (stereo in doubt) [FPP, farnesyl diphosphate] | 440 ± 200 | – | –
CC(C)=CCC/C(C)=C/CC/C(C)=C/CC/C(C)=C/COP(=O)(O)OP(=O)(O)O [GGPP, geranyl-geranyl pyrophosphate] | 930 ± 190 | – | –
CC(C)=CCC/C(C)=C/COP(=O)(O)OP(=O)(O)O [GPP, geranyl diphosphate] | 550 ± 280 | – | –
Aedes aegypti mevalonate kinase (AaMVK) (Aedes aegypti) (protein, recombinant His-tagged full-length AaMVK (397 aa) expressed in E. coli) MNSLNSFEISAPGKVILHGEHSVVYGKPAIAGPIGLRTYLTYKKLDVPEIILDFASIPFTSKLSLESFNQFLQQHNCHSDMQPLEFLSKLRTSEEFPFAQYVSPQPAQDSTKERYSLGVALYLINRIMRSEGVDALPTKSGFQLTIKSVMSIGAGLGSSAGYGVCVSAGAYVITKLAKGELTVDNALNYSFQGNEPEVLKKISQWAFDSELVMHERPSGIDNTICTYGNLIKFRKGEPFESLKLRQQINILIVDTKVSRTTSKLVANVAALKNKHPKMMESILDAMGHLVDDAVELLEDERDQFEALRTLVAVNNNLLRAIGVSHPSLEKVFQLADSSGFDAKLTGAGGGGCALVFLPKDYESLKEFGVLTGSLTEAGFSWMATTIGGSGVEFKAIE | – | 140 ± 28 | 90 ± 18
